From ChEMBL document CHEMBL3046180, “Antifungal activity of some diaryl ethers” (2007)
Active and inactive are the calls of the source. The calls are words filed in the database; no cut-off is given here.

Legend:
[1] = tested on: Alternaria brassicae; experiment: Growth inhibition of Alternaria brassicae at 50 ug/ml after 4 days by poisoned food technique; type: functional; conditions: 96 h, read-out: GI
[2] = tested on: Alternaria alternata; experiment: Growth inhibition of Alternaria alternata at 500 ug/ml after 4 days by poisoned food technique; type: functional; conditions: 96 h, read-out: GI
[3] = tested on: Fusarium oxysporum f. sp. cucumerinum; experiment: Growth inhibition of Fusarium oxysporum f. sp. cucumerinum at 500 ug/ml after 4 days by poisoned food technique; type: functional; conditions: 96 h, read-out: GI
[4] = tested on: Bipolaris sorokiniana; experiment: Growth inhibition of Bipolaris sorokiniana at 500 ug/ml after 4 days by poisoned food technique; type: functional; conditions: 96 h, read-out: GI
[5] = tested on: Pyricularia oryzae; experiment: Growth inhibition of Magnaporthe oryzae at 500 ug/ml after 4 days by poisoned food technique; type: functional; conditions: 96 h, read-out: GI
[6] = tested on: Alternaria alternata; experiment: Growth inhibition of Alternaria alternata at 50 ug/ml after 4 days by poisoned food technique; type: functional; conditions: 96 h, read-out: GI
[7] = tested on: Fusarium oxysporum f. sp. vasinfectum; experiment: Growth inhibition of Fusarium oxysporum f. sp. vasinfectum at 500 ug/ml after 4 days by poisoned food technique; type: functional; conditions: 96 h, read-out: GI
[8] = tested on: Fusarium oxysporum f. sp. vasinfectum; experiment: Growth inhibition of Fusarium oxysporum f. sp. vasinfectum at 50 ug/ml after 4 days by poisoned food technique; type: functional; conditions: 96 h, read-out: GI
[9] = tested on: Alternaria brassicae; experiment: Growth inhibition of Alternaria brassicae at 500 ug/ml after 4 days by poisoned food technique; type: functional; conditions: 96 h, read-out: GI
[10] = tested on: Pyricularia oryzae; experiment: Growth inhibition of Magnaporthe oryzae at 50 ug/ml after 4 days by poisoned food technique; type: functional; conditions: 96 h, read-out: GI
[11] = tested on: Fusarium oxysporum f. sp. cucumerinum; experiment: Growth inhibition of Fusarium oxysporum f. sp. cucumerinum at 50 ug/ml after 4 days by poisoned food technique; type: functional; conditions: 96 h, read-out: GI
[12] = tested on: Fusarium graminearum; experiment: Growth inhibition of Fusarium graminearum at 500 ug/ml after 4 days by poisoned food technique; type: functional; conditions: 96 h, read-out: GI
[13] = tested on: Fusarium graminearum; experiment: Growth inhibition of Fusarium graminearum at 50 ug/ml after 4 days by poisoned food technique; type: functional; conditions: 96 h, read-out: GI
[14] = tested on: Bipolaris sorokiniana; experiment: Growth inhibition of Bipolaris sorokiniana at 50 ug/ml after 4 days by poisoned food technique; type: functional; conditions: 96 h, read-out: GI
[15] = tested on: Fusarium graminearum; experiment: Antifungal activity against Fusarium graminearum assessed as mycelial growth inhibition at 250 to 500 ug/ml after 4 days by poisoned food technique; type: functional, organism-based

Row | Compound | inhibition of growth at 50 µg/mL [1] | inhibition of growth at 500 µg/mL [2] | inhibition of growth at 500 µg/mL [3] | inhibition of growth at 500 µg/mL [4] | inhibition of growth at 500 µg/mL [5] | inhibition of growth at 50 µg/mL [6] | inhibition of growth at 500 µg/mL [7] | inhibition of growth at 50 µg/mL [8] | inhibition of growth at 500 µg/mL [9] | inhibition of growth at 50 µg/mL [10] | inhibition of growth at 50 µg/mL [11] | inhibition of growth at 500 µg/mL [12] | inhibition of growth at 50 µg/mL [13] | inhibition of growth at 50 µg/mL [14] | growth inhibition (GI) [15]
1 | O=[N+]([O-])c1ccc(Oc2ccccc2)cc1 | 55.5% | 83.8% | 72.9% | 73% | 81.9% | 66.8% | 83.4% | 81.8% | 76% | 48% | 61.2% | 87.4% | 71.6% | 87.2% | 
2 | Cc1cc(O)no1 [HYMEXAZOL] | 89% | 100% | 91.5% | 37.1% | 100% | 82.3% | 92.3% | 45.8% | 100% | 66.4% | 19.8% | 99.4% | 38.7% | 100% | 
3 | O=[N+]([O-])c1ccc(Oc2ccc([N+](=O)[O-])cc2)cc1 [4,4'-OXYBIS(NITROBENZENE)] | 36.8% | 19.8% | 50.9% | 16.7% | 36.6% | 15% | 63.6% | 57.6% | 75.2% | 1.9% | 38% | 3.1% | 13.6% | 20.4% | 
4 | CC(C)(C)c1ccc(Oc2ccccc2C#N)cc1 | 43.5% | 51% | 33.3% | 38.4% | 43.1% | 35.8% | 44.3% | 20.1% | 53.3% | 43.7% | 20.4% | 56% | 38.3% | 42.8% | 
5 | O=[N+]([O-])c1ccc(Oc2ccccc2[N+](=O)[O-])cc1 [2,4'-OXYBIS(NITROBENZENE)] | 8.5% | 56.3% | 33.3% | 35.3% | 47.1% | 49.3% | 42.7% | 19.3% | 49.6% | 31.4% | 9.3% | 68.7% | 66.2% | 42.2% | 
6 | N#Cc1ccccc1Oc1ccc(Cl)cc1 | 56.8% | 78% | 54.3% | 56.2% | 77.7% | 55.9% | 57% | 52.5% | 74.1% | 59.7% | 48.8% | 83.7% | 79.6% | 68% | 
7 | O=[N+]([O-])c1ccccc1Oc1ccccc1 | 79% | 95.3% | 65.3% | 30.2% | 92% | 62.2% | 70.9% | 70.1% | 87.9% | 58% | 55.6% | 94% | 64.9% | 95% | Active
